The text below walks through data of patent US11098060B2, “Macrocycle containing aminopyrazole and pyrimidine and pharmaceutical composition and use thereof” (CHIA TAI TIANQING PHARMACEUTICAL GROUP CO., LTD., priority 2017, dated 2021).

Data set [1] has as its target TrkA^WT kinase (Homo sapiens (Human), UniProt P04629). Briefly: Assay for inhibitory activity (IC50) against TrkA^WT (HTRF). The class given is biochemical. The following applies: TrkA 1 nM, ATP 40 μM, TK peptide 1 μM, 60 min at 23° C. (In general: Time-resolved FRET reads energy transfer from a long-lived donor to a nearby acceptor.)
The target in data set [2] is TrkA^G595R (Kinase domain) kinase (Homo sapiens (Human), UniProt P04629, G595R). Briefly: Assay for inhibitory activity (IC50) against TrkA^G595R kinase (HTRF). The following applies: kinase 0.2 nM, TK peptide 1 μM, 120 min at 23° C. The class given is biochemical.
The nature of data set [3]: Pharmacokinetic assay in rats, oral. The class given is in vivo. The following applies: rat, male SD rats, 5 mg/kg single intragastric administration, plasma. The protocol: Male SD rats were available from Beijing Vital River Laboratory Animal Technology Co., Ltd. The rats were allocated with three rats per group, and orally administered the suspension of a sample to be tested (5 mg/kg, the suspension is a mixed solution of 10% EtOH, 40% PEG 400 and 50% H2O) by single intragastric administration, respectively. Before the experiment, the animals were fasted overnight, and the fasting time was from 10 hrs before administration to 4 hrs after administration. After administration, a blood sample was taken at 0.25 hr, 0.5 hr, 1 hr, 2 hrs, 4 hrs, 6 hrs, 8 hrs and 24 hrs, respectively. After the animals were narcotized with isoflurane using an anaesthesia machine for small animals, 0.3 mL of whole blood was taken from fundus venous plexus, and placed in a heparin anticoagulant tube. At 4° C., the sample was centrifuged at 4000 rpm for 5 min, and plasma was transferred to a centrifuge tube and preserved at −80° C. until the analysis was started. The sample in plasma was extracted by the protein precipitation method, and the extracted liquid was analyzed by LC/MS/MS.

The term IC50 denotes the midpoint of a concentration-inhibition curve. Low readings indicate greater potency, high ones weaker potency. Usually AUC(0-inf) stands for total exposure, with the tail of the curve extrapolated. A higher AUC(0-inf) goes with high exposure. One may read the Cmax as the peak of the concentration-time curve. As usually defined, the Tmax is the time from dosing to the highest level. A word on the half-life: it is how long it takes for the measured level to halve. The low end stands for rapid decline, the high end for slow decline.

Chain of TrkA^G595R (Kinase domain) kinase (P04629 510-781 G595R): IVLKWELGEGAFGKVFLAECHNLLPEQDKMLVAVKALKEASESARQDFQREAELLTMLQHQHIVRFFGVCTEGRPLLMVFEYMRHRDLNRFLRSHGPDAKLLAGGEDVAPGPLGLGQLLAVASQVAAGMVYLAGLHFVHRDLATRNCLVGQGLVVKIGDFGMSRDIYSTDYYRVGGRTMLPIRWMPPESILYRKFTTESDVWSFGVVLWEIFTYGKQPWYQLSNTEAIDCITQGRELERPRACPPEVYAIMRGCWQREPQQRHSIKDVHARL
Chain of TrkA^WT kinase (P04629 33-796): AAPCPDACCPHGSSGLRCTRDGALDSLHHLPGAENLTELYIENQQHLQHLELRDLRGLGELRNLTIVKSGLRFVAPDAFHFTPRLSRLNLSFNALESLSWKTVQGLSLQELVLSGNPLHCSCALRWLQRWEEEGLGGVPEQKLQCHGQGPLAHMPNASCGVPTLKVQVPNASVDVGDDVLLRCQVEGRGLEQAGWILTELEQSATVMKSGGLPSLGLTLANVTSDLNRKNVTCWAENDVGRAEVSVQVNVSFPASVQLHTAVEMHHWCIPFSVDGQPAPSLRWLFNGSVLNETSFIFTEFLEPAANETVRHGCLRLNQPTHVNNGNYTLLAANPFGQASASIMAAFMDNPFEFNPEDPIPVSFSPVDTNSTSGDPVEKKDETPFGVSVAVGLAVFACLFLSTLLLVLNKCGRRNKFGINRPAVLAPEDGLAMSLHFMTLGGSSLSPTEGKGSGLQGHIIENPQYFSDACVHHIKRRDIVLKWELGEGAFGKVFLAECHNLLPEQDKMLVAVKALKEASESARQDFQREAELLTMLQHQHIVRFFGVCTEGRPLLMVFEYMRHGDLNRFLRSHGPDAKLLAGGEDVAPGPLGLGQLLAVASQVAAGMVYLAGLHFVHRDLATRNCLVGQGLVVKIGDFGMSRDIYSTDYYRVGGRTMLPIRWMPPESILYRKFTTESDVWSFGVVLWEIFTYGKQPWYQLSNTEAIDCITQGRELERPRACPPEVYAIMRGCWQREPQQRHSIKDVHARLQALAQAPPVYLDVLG

Take `Nc1nn2ccc3nc2c1C(=O)NCCOc1ccc(F)cc1[C@H]1CCCN31` [Example 8, (R,1^3E,1^4E)-1^2-amino-3^5-fluro-4-oxa-7-aza-1(5,3)-pyrazolo[1,5-a]pyrimidine-2(1,2)-pyrrolidine-3(1,2)-benzocyclooctanephane-8-one]: the IC50 in data set [1] was determined as 0.41 ± 0.04 nM; in data set [2], 2.08 ± 0.45 nM.
For `Nc1nn2ccc3nc2c1C(=O)NCCOc1ncc(F)cc1[C@H]1C[C@@H](O)CN31` [Example 9, (1^3E,1^4E,2^2R,2^4R)-1^2-amino-3^5fluoro-2^4-hydroxy-4-oxa-7-aza-1(5,3)-pyrazolo[1,5-a] pyrimidine-3(3,2)-pyridine-2(1,2)-pyrrolidylcyclooctanephane-8-one], in that order: 0.44 ± 0.12 nM and 0.84 ± 0.14 nM.
For `Nc1nn2ccc3nc2c1C(=O)NCCCOc1ccc(F)cc1[C@H]1CCCN31` [Example 10, (R,1^3E,1^4E)-1^2-amino-3^5-fluro-4-oxa-8-aza-1(5,3)-pyrazolo[1,5-a]pyrimidine-2(1,2)-pyrrolidine-3(1,2)-benzocyclononanephane-9-one] the same measures were 0.8 ± 0.21 nM and 1.92 ± 0.1 nM.
In data set [1], `Nc1nn2ccc3nc2c1C(=O)NCCOc1ncc(F)cc1[C@H]1C[C@H](F)CN31` [Example 14, (1^3E,1^4E,2^2R,2^4S)-1^2-amino-2^4,3^5-difluoro-4-oxa-7-aza-1(5,3)-pyrazolo[1,5-a]pyrimidine-3(3,2)-pyridine-2 (1,2)-pyrrolidylcyclooctanephane-8-one] yielded an IC50 of 0.68 ± 0.03 nM. Besides, in data set [3], the AUC(0-inf) was 504 ng·h/mL, the Cmax stood at 140 ng/mL, the Tmax worked out at 1 h and the half-life is 1.81 h. The compound further yielded an IC50 in data set [2] of 0.4 ± 0.05 nM.
`C[C@H]1CNC(=O)c2c(N)nn3ccc(nc23)N2C[C@@H](F)C[C@@H]2c2cc(F)cnc2O1` [Example 15, (1^3E,1^4E,2^2R,2^4S,5S)-1^2-amino-2^4,3^5-difluoro-5-methyl-4-oxa-7-aza-1(5,3)-pyrazolo[1,5-a] pyrimidine--3(3,2)-pyridine-2(1,2)-pyrrolidylcyclooctanephane-8-one]: in data set [1], the IC50 worked out at 0.45 ± 0.18 nM. For the same compound, in data set [3], the AUC(0-inf) is 494 ng·h/mL, the highest level (Cmax) was 285 ng/mL, the Tmax is 0.58 h and the half-life is 1.53 h. The compound further showed an IC50 in data set [2] of 0.53 ± 0.08 nM.
As to `Nc1nn2ccc3nc2c1C(=O)NCCCCOc1ncc(F)cc1[C@H]1C[C@H](F)CN31` [Example 16, (1^3E,1^4E,2^2R,2^4S)-1^2-amino-2^4,3^5-difluoro-4-oxa-9-aza-1(5,3)-pyrazolo[1,5-a] pyrimidine-3(3,2)-pyridine-2(1,2)-pyrrolidylcyclodecanephane-10-one], the values for the IC50 in data set [1] and in data set [2] were 0.51 ± 0.05 nM and 0.76 ± 0.14 nM, respectively.
Consider `CN1CCCOc2ncc(F)cc2[C@H]2C[C@H](F)CN2c2ccn3nc(N)c(c3n2)C1=O` [Example 17, (1^3E,1^4E,2^2R,2^4S)-1^2-amino-2^4,3^5-difluoro-8-methyl-4-oxa-8-aza-1(5,3) -pyrazolo[1,5-a] pyrimidine-3(3,2)-pyridine-2(1,2)-pyrrolidylcyclononanephane-9-one], for which the results for the IC50 in data set [1] and in data set [2] were 0.61 ± 0.06 nM and 1.05 ± 0.16 nM, respectively.
For `Nc1nn2ccc3nc2c1C(=O)NCCCOc1ncc(F)cc1[C@H]1CCCN31` [Example 21, (R,1^3E,1^4E)-1^2-Amino-3^5-fluoro-4-oxa-8-aza-1(5,3)-pyrazol[1,5-a]pyrimidine-3(3,2)-pyridine-2(1,2)-pyrrolidylcyclononanephane-9-one] the same measures were 0.4 ± 0.04 nM and 0.85 ± 0.04 nM.
`Nc1nn2ccc3nc2c1C(=O)NCCCc1ncc(F)cc1[C@H]1C[C@H](F)CN31` [Example 27, (1^3E,1^4E,2^2R,2^4S)-1^2-amino-2^4,3^5-difluoro-7-aza-1(5,3)-pyrazolo[1,5-a]pyrimidine-3(3,2)-pyridine-2(1,2)-pyrrolidylcyclooctanephane-8-one]: the values for the IC50 in data set [1] and in data set [2] were 0.21 ± 0.03 nM and 0.68 ± 0.26 nM, respectively.
For `C[C@@H]1CCc2ncc(F)cc2[C@H]2CCCN2c2ccn3nc(N)c(c3n2)C(=O)N1` [Example 28, (1^3E,1^4E,2^2R,6R)-1^2-amino-3^5-fluoro-6-methyl-7-aza-1(5,3)-pyrazolo[1,5-a]pyrimidine 3(3,2)-pyridine-2(1,2) pyrrolidylcyclooctanephane-8-one], in that order: 0.31 ± 0.03 nM and 1.01 ± 0.36 nM.
For `C[C@H]1CCc2ncc(F)cc2[C@H]2C[C@H](F)CN2c2ccn3nc(N)c(c3n2)C(=O)N1` [Example 29, (1^3E,1^4E,2^2R,24S,6S)-1^2-amino-2^4,3^5-difluoro-6-methyl-7-aza-1(5,3)-pyrazolo[1,5-a]pyrimidine-3(3,2)-pyridine-2(1,2) pyrrolidylcyclooctanephane-8-one] the same measures were 0.25 ± 0.02 nM and 1.08 ± 0.24 nM.
Regarding `C[C@H]1CNC(=O)c2c(N)nn3ccc(nc23)N2CCC[C@@H]2c2cc(F)ccc2O1` [Example 32, (1^3E,1^4E,2^2R,5S)-1^2-amino-3^5-fluoro-5-methyl-4-oxa-7-aza-1(5,3)-pyrazolo[1,5-a]pyrimidine-(1,2)-pyrrolidine-3(1,2)-benzocyclooctanephane-8-one], the half-inhibitory concentration (IC50) in data set [2] is 1.28 ± 0.05 nM.
As to `Nc1nn2ccc3nc2c1C(=O)NCCOc1ncc(F)cc1[C@H]1CCCN31` [Example 33, (R,1^3E,1^4E)-1^2-amino-3^5-fluoro-4-oxa-7-aza-1(5,3)-pyrazo[1,5-a]pyrimidine-3(3,2)-pyridine-2(1,2)-pyrrolidylcyclooctanephane-8-one], in data set [3], the AUC(0-inf) is 513 ng·h/mL, the concentration peaked (Cmax) at 142 ng/mL, the Tmax was found to be 0.5 h and the half-life is 4.22 h.
Regarding `Nc1nn2ccc3nc2c1C(=O)NCC(F)(F)COc1ncc(F)cc1[C@H]1C[C@H](F)CN31` [Example 35, (1^3E,1^4E,2^2R,2^4S)-1^2-amino-2^4,3^5,6,6-tetrafluoro-4-oxa-8-aza-1(5,3)-pyrazol[1,5-a]pyrimidine-3(3,2)-pyridine-2(1,2)-pyrrolidylcyclononanephane-9-one], 1.36 ± 0.02 nM corresponded to half-maximal inhibition in data set [2] (IC50).
Regarding “(1^3E,1^4E,2^2R,2^4S)-1^2-Amino-2^4,3^5-difluoro-4-oxa-8-aza-1(5,3)-pyrazolo[1,5-a]pyrimidin-3(3,2)-pyridine-2(1,2)-pyrrolidylcyclononanephane-9-one [Example 12]”, the IC50 in data set [1] was 0.72 ± 0.04 nM; in data set [2], 0.34 ± 0.04 nM.
